The subject of experiment [1] is T1, 210K ß-glucosidase.
T1 construct: gene 210K BGL; native, purified from digestive fluid; 210 kDa by SDS-PAGE; glycoprotein
The experiment is described as follows: 4-methylumbelliferone release, fluorometric; Lineweaver-Burk. The class given is biochemical, Aplysia kurodai. As to conditions: 37°C. An excerpt: 4-methylumbelliferone release, fluorometric; Lineweaver-Burk on 210K ß-glucosidase

Experiment [2] has as its target T1, 210K ß-glucosidase. The experiment is described as follows: inhibition of 4MU-ß-glucoside hydrolysis, fluorometric; Cornish-Bowden. The settings on record: substrate 4MU-ß-glucoside; 37°C; mixed. The format is biochemical, Aplysia kurodai. An excerpt: inhibition of 4MU-ß-glucoside hydrolysis, fluorometric; Cornish-Bowden on 210K ß-glucosidase
The target in experiment [3] is T2, 110K ß-glucosidase (Aplysia kurodai, UniProt A0A1V1FXL2).
T2 construct: gene ApBGL; native, purified from digestive fluid; 110 kDa by SDS-PAGE; glycoprotein
T2 sequence (A0A1V1FXL2 24-994): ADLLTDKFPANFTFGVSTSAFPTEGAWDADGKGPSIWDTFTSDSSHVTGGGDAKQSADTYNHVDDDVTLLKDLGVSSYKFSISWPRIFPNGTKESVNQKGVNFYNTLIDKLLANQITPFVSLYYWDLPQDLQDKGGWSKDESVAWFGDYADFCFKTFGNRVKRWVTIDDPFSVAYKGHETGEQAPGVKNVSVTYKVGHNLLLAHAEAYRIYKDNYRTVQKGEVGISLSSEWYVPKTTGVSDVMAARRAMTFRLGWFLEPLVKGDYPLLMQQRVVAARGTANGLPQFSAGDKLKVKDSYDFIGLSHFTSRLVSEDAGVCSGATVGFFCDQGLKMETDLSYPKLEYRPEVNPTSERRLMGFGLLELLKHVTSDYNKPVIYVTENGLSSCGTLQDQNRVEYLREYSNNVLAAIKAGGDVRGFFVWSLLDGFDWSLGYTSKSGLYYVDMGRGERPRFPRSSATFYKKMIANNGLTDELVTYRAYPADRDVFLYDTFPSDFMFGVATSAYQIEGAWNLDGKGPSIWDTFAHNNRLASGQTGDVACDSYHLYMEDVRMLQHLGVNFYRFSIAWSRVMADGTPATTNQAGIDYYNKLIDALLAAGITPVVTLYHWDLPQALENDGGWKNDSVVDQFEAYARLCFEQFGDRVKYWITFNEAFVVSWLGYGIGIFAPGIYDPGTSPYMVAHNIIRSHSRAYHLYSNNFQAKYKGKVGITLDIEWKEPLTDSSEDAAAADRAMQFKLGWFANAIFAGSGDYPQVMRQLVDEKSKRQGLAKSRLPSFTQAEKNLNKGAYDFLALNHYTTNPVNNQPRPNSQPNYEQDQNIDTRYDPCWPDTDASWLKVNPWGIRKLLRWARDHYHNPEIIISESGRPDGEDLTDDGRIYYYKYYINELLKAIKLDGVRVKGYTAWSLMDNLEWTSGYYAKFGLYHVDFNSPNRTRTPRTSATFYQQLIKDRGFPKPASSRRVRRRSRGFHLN
The experiment is described as follows: inhibition of 4MU-ß-glucoside hydrolysis, fluorometric; Lineweaver-Burk. The class given is biochemical. The settings on record: substrate 4MU-ß-glucoside; 37°C; competitive. An excerpt: inhibition of 4MU-ß-glucoside hydrolysis, fluorometric; Lineweaver-Burk on 110K ß-glucosidase

For experiment [4], the system named is T1, 210K ß-glucosidase. The experiment is described as follows: cellobiose hydrolysis; Lineweaver-Burk. As to conditions: read-out: 210 K; 37°C; printed unit doubtful: the printed Vmax/Km scale implies mM; heading: 210 K. The class given is biochemical, Aplysia kurodai.
The target in experiment [5] is T2, 110K ß-glucosidase. The experiment is described as follows: inhibition of 4MU-ß-glucoside hydrolysis. The format is biochemical. As to conditions: substrate 4MU-ß-glucoside; compound name doubtful (preceding sentence speaks of conduritol B epoxide).

Consider `Cc1cc(=O)oc2cc(O[C@@H]3O[C@H](CO)[C@H](O)[C@H](O)[C@H]3O)ccc12` [4MU-ß-galactoside], for which the Km in the experiment with 210K ß-glucosidase [1] stood at 199 ± 5 µM.

For the molecule `Cc1cc(=O)oc2cc(O[C@@H]3O[C@H](CO)[C@@H](O)[C@H](O)[C@H]3O)ccc12` [4MU-ß-glucoside], in the experiment on 210K ß-glucosidase [1], the Km came out at 105 ± 11 µM.

Usually Ki stands for a dissociation constant, usually derived from enzyme kinetics or from competition with a known ligand. The low end stands for tighter binding, the high end for weaker binding. Regarding `O=C1O[C@H](CO)[C@@H](O)[C@H](O)[C@H]1O` [D-glucono-1,5-lactone], the inhibition constant (Ki) stood at 8.1 ± 0.2 µM at 210K ß-glucosidase [2] and 3.66 ± 0.47 µM at 110K ß-glucosidase [3].

As for `OC[C@H]1O[C@@H](O[C@H]2[C@H](O)[C@@H](O)C(O)O[C@@H]2CO)[C@H](O)[C@@H](O)[C@@H]1O` (stereo partly drawn) [cellobiose], in the experiment on 210K ß-glucosidase [4], the Km came to 1.93 ± 0.15 mM.

As usually defined, the % inhibition is the share of the control response that was lost under treatment. For Conduritol B-sulfate, the “% inhibition at 10 mM” value at 110K ß-glucosidase [5] is 48%.

Values taken from PMC3675134, “Comprehensive Enzymatic Analysis of the Cellulolytic System in Digestive Fluid of the Sea Hare Aplysia kurodai. Efficient Glucose Release from Sea Lettuce by Synergistic Action of 45 kDa Endoglucanase and 210 kDa ß-Glucosidase” (PLoS ONE, 2013).
